Data set [1] deals with T1, recombinant human GBA1 (rhGBA1, Cerezyme) (Homo sapiens, UniProt P04062, R534H).
T1 construct: purchased Cerezyme
T1 sequence (P04062 40-536 R534H): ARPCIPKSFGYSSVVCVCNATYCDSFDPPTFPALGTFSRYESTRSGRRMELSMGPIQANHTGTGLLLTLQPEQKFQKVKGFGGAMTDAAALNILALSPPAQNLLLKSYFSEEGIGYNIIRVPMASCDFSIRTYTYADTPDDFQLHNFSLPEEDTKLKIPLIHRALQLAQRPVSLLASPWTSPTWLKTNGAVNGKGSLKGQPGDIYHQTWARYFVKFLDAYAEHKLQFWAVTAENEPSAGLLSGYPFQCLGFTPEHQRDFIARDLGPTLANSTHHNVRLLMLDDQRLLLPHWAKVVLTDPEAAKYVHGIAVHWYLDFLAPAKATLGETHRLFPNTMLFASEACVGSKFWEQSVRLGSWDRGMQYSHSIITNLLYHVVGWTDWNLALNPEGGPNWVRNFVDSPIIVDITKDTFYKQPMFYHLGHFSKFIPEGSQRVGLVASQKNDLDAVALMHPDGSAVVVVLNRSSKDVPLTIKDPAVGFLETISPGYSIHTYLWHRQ
The data set can be described thus: rhGBA1 Ki / kinetic studies with varied 4-MU substrate. Particulars: 4MU substrate 0.05-5 mM, no pre-incubation, mean ± SD from 3 technical triplicates. The class given is biochemical. The procedure:
Based on the pull-down validation, a set of eight cyclic peptides (L1, L2, L4, L6, D1, D8, D12 and D13) were identified, synthesized, and evaluated for their inhibitory potency against recombinant human GBA1 (rhGBA1, Cerezyme®) and their selectivity over human β-glucosidases GBA2 and GBA3. Half-maximum inhibitory concentration (IC50) values for β-glucosidases were determined in vitro by measuring hydrolysis of 4-methylumbelliferyl-β-D-glucopyranoside (4-MU-β-D-Glu) fluorogenic substrate.
(§1) Selective Cyclic Peptide Ligands as GBA1 Stabilizers Katzy et al.
Figure S4. Inhibitory constant (Ki) values using increasing concentrations of 4-MU-beta-glucoside as fluorogenic substrate. Enzyme activity (nmol h-1 mg-1) versus MU substrate concentrations is plotted (See Table 1 for Ki values) for inhibitors L2, L4, L6, D1, D8, and D12, and corresponding Lineweaver Burk plots are shown on the right.
(§2) (1 picture or pasted object on this page, not shown here)
GBA1 Ki values were determined using the same incubation times and buffers as described above following a previously described protocol.6 4MU-β-D-glucopyranoside concentration was varied […]
between 0.05 mM and 5 mM. […]
2.8. Thermostability assays in rhGBA (Cerezyme)
Varying concentrations of peptides were incubated with 1 µM rhGBA1 in 20 mM HEPES pH 7.0 with 100 mM NaCl, with a final DMSO concentration of 0.5 %, for 2 hours at room temperature. Melting

For data set [2], the system named is Human dermal fibroblasts. As to the kind of experiment: Toxicity / morphology of human dermal fibroblasts. The class given is cell-based. Particulars: 3 hours, peptide concentrations above 10 μM (10 and 100 μM). The procedure: We further investigated GBA1 inhibition in cells. Human dermal fibroblasts were initially incubated with peptide concentrations ranging from 0.1 μM (from 0.001 μM for L4, D1 and D12) to 100 μM of each cyclic peptide for […]. […] To further confirm the inability of these peptides to cross the cell membrane, we conducted in situ competitive activity-based protein profiling (cABPP) experiments using RAW 264.7 monocyte/macrophage-like cells. […] RAW 264.7 cells were then treated with increasing concentrations of cyclic peptides (0, 0.1, 1, 10, and 100 μM) for 4 hours, followed by exposure to a cell-penetrant Bodipy red broad spectrum GBA activity-based probe (ABP), JJB75[58] at 10 nM for 2 hours (Fig. S5 for chemical structures, ESI ^†). […] This cABPP experiment further confirms that the peptides are unable to cross the cell membrane (Fig. S6, ESI ^†).

Data set [3] addresses T1, recombinant human GBA1 (rhGBA1, Cerezyme). As to the kind of experiment: Thermostability of rhGBA1, label-free differential scanning fluorimetry (Tycho NT.6). The note with it: rhGBA1 at 1 μM, 20 mM HEPES pH 7.0, 100 mM NaCl, 0.5% DMSO, 2 h room temperature; N. D. = not determined due to a lack of stabilisation effect. The class given is binding. For orientation: In DSF a fluorescence change marks the thermal transition of the protein.
Method: Samples were incubated at room temperature for 2
hours before measurement in the Tycho NT6.
curves were determined in triplicate using the Tycho NT.6 (NanoTemper), according to manufacturer

The nature of data set [4]: Intrinsic stability of cyclic peptides in plasma. The note with it: 0.1 μM in human plasma, 2 h at 37°C, then rhGBA1 10 nM 30 min, 4-MU activity read-out; n=3, technical duplicates. It is filed as in vitro ADME. The procedure:
Specifically, high concentrations of all peptides (10–1 μM) led to enzyme binding but also GBA1 inhibition after short incubations (0 to 30 minutes). […] To discard potential degradation of D8 and D12 during plasma experiments, the peptides were incubated in plasma at 0.1 μM for 2 hours, followed by the addition of rhGBA1 to measure its activity. This was compared to controls where D8 and D12 were added to plasma and directly tested for GBA1 activity.
as §1
Figure S10. Cerezyme (10 nM) stability in McIlvaine buffer pH 5.2 or in plasma of a healthy individual. GBA1 activity measured in n=3 replicates, in technical duplicates.
Figure S11. Intrinsic compounds stability of cyclic peptides D8 and D12 (0.1 µM) in plasma. rhGBA1 (10 nM) was added to compounds pre-incubated in plasma for 2h at 37°C or readily dissolved in DMSO, and incubated for 30 min, after which 4-MU activity was measured. Error ranges depict standard deviations from n=3 replicates, measured in technical duplicates.
Table S1. IC50 values for GBA1 inhibition in fibroblast lysates. Cells were treated with the peptides at increasing concentrations for 16 h, washed with PBS and homogenized. Reported values are mean ± standard deviation from 3 technical triplicates. N.D.: not determined.
Peptide GBA1 in fibroblast lysates
as §2

Positions of bridges follow the written chain, without caps; N, C: chain ends. Non-standard residues stand in square brackets, D forms with d. Residues, ends and D or L forms follow the SMILES beside them.

Usually Ki stands for a measure of affinity in units of concentration, obtained from inhibition or displacement. Broadly, the EC50 is the concentration needed to bring the measured effect to its halfway point.

Regarding `CC[C@H](C)[C@H](NC(=O)[C@H](CC(C)C)NC(=O)[C@H](Cc1ccc(O)cc1)NC(=O)[C@H](Cc1ccc(O)cc1)NC(=O)[C@@H]1CSCC(=O)N[C@H](Cc2ccc(O)cc2)C(=O)N[C@@H](CCCNC(=N)N)C(=O)N[C@@H](C(C)C)C(=O)N1)C(=O)N[C@H](C(=O)N[C@H](C(=O)N[C@@H](CC(C)C)C(=O)N[C@@H](CC(=O)O)C(=O)N[C@@H](CS)C(N)=O)C(C)C)[C@@H](C)O` [D1] ({CH2CO}-[dY]RVCYYLITVLDC-NH2; thioether N-4), the Ki in data set [1] amounted to 0.9 ± 0.1 nM.
Same read-out and setting: the value for `CC[C@H](C)[C@@H]1NC(=O)[C@H](Cc2ccc(O)cc2)NC(=O)CSC[C@@H](C(N)=O)NC(=O)[C@H](Cc2c[nH]c3ccccc23)NC(=O)[C@H](CCC(N)=O)NC(=O)[C@H]([C@@H](C)CC)NC(=O)[C@H]([C@@H](C)CC)NC(=O)[C@@H]2CCCN2C(=O)[C@H](C(C)C)NC(=O)[C@H](Cc2ccc(O)cc2)NC(=O)[C@H](Cc2c[nH]c3ccccc23)NC(=O)[C@H](CO)NC1=O` [L6] ({CH2CO}-YISWYVPIIQWC-NH2; thioether N-12) was 1340 ± 203 nM.
With `CC(C)C[C@H](NC(=O)[C@@H](NC(=O)[C@H](CCCNC(=N)N)NC(=O)[C@@H]1CSCC(=O)N[C@H](Cc2ccc(O)cc2)C(=O)N[C@@H]([C@@H](C)O)C(=O)N2CCC[C@H]2C(=O)NCC(=O)N[C@@H](Cc2ccc(O)cc2)C(=O)N[C@@H](C(C)C)C(=O)N[C@@H](Cc2ccc(O)cc2)C(=O)N1)C(C)C)C(=O)N[C@@H](CCCCN)C(=O)N[C@@H](Cc1ccc(O)cc1)C(=O)N[C@@H](CS)C(N)=O` [D8] ({CH2CO}-[dY]TPGYVYCRVLKYC-NH2; thioether N-8), in data set [1], the inhibition constant (Ki) came to 13 ± 4 nM. In data set [2], the “toxicity to the cells (morphology)” value is “still attached and otherwise looked healthy”. The EC50 in data set [3] amounted to 2200 ± 500 nM. The “peptide stability in plasma (inhibitory activity after pre-incubation)” value in data set [4] was “retained their inhibitory activity against rhGBA1”.
As to `CC(C)C[C@@H]1NC(=O)CNC(=O)[C@H](CC(C)C)NC(=O)[C@@H](Cc2ccc(O)cc2)NC(=O)CSC[C@@H](C(N)=O)NC(=O)[C@H](CO)NC(=O)[C@H](CCCCN)NC(=O)[C@H](CC(C)C)NC(=O)[C@H](Cc2ccccc2)NC(=O)[C@H](CCCNC(=N)N)NC(=O)[C@H](Cc2ccc(O)cc2)NC(=O)[C@H](Cc2c[nH]c3ccccc23)NC1=O` [D12] ({CH2CO}-[dY]LGLWYRFLKSC-NH2; thioether N-12), the Ki in data set [1] came out at 1 ± 0.4 nM. In data set [2], the “toxicity to the cells (morphology)” value was “still attached and otherwise looked healthy”. The EC50 in data set [3] was determined as 1900 ± 400 nM. In data set [4], the “peptide stability in plasma (inhibitory activity after pre-incubation)” value is recorded as “retained their inhibitory activity against rhGBA1”.
In the case of `CC(C)C[C@@H]1NC(=O)CNC(=O)[C@H](Cc2ccccc2)NC(=O)[C@H](CC(C)C)NC(=O)[C@@H]2CCCN2C(=O)[C@H](Cc2ccc(O)cc2)NC(=O)CSC[C@@H](C(=O)N2CCC[C@H]2C(=O)N[C@@H](CC(N)=O)C(=O)N[C@@H](Cc2c[nH]c3ccccc23)C(=O)N[C@@H](Cc2ccccc2)C(=O)N2CCC[C@H]2C(=O)N[C@@H](Cc2ccc(O)cc2)C(=O)N[C@@H](CCC(N)=O)C(=O)N[C@@H](CS)C(N)=O)NC(=O)[C@H](CO)NC(=O)[C@H](Cc2ccccc2)NC1=O` [L4] ({CH2CO}-YPLFGLFSCPNWFPYQC-NH2; thioether N-9), the Ki in data set [1] was 2 ± 1 nM. Further, the EC50 in data set [3] was determined as 2600 ± 1100 nM.
On the same counts, the results for `CC[C@H](C)[C@H](NC(=O)[C@H](CCCNC(=N)N)NC(=O)[C@@H]1CSCC(=O)N[C@@H](Cc2ccc(O)cc2)C(=O)N[C@@H](C)C(=O)N[C@@H](Cc2ccc(O)cc2)C(=O)N[C@@H](Cc2c[nH]c3ccccc23)C(=O)N[C@@H](Cc2c[nH]c3ccccc23)C(=O)N[C@@H](CC(C)C)C(=O)N1)C(=O)N1CCC[C@H]1C(=O)N[C@@H](Cc1c[nH]c2ccccc12)C(=O)N[C@@H](CC(C)C)C(=O)N[C@@H](CO)C(=O)N[C@H](C(N)=O)C(C)C` [L2] ({CH2CO}-YAYWWLCRIPWLSV-NH2; thioether N-7) are 42 ± 7 nM and 2000 ± 500 nM.

Values taken from publication PMC11808397, “Development of selective nanomolar cyclic peptide ligands as GBA1 enzyme stabilisers” (RSC Chemical Biology, 2025).
